Experimental data as given in patent publication US9980943B2, “Methods of treating muscular dystrophy” (BOARD OF REGENTS OF THE NEVADA SYSTEM OF HIGHER EDUCATION, …, priority 2013, dated 2018).

Legend:
Type in all cases: cell-based, mouse
[1] = system: β-galactosidase in CMV-LacZ C2C12 myoblasts; assay: CMV-LacZ secondary screen in C2C12 myoblasts (β-Gal stabilizing assay); conditions: SU9516 analogs, C2C12 CMV-LacZ, N=2
How it was run: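 A secondary screen identifies compounds that stabilize β-gal independently of the native promoter, using CMV-LacZ C2C12 cells. Curves span 0.5–40 μM at six levels, in duplicate.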

[2] = system: α7 integrin (LacZ reporter in α7βgal+/− myoblasts); assay: Myoblast α7+/LacZ integrin FDG assay (Burkin assay in myoblasts, 96-well); conditions: for Burkin Assay in Myoblasts, value relative to DMSO: SU9516 analogs, 96-well, N=3-6
[3] = system: β-galactosidase in CMV-LacZ C2C12 myotubes; assay: CMV-LacZ secondary screen in C2C12 myotubes (β-Gal stabilizing assay); conditions: SU9516 analogs, C2C12 CMV-LacZ, N=2
How it was run: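 β-gal stabilization was measured in C2C12 myoblasts or myotubes stably transfected with a CMV-driven LacZ construct, using the FDG β-gal assay. Compounds were tested in dose-response at 0.5, 1, 5, 10, 20 and 40 μM, with two replicates per point.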

[4] = system: α7 integrin (LacZ reporter in α7+/LacZ myotubes); assay: Myotube α7 integrin FDG assay (Burkin assay in myotubes, 96-well); conditions: SU9516 analogs, 96-well, N=3-6
[5] = Mus musculus, Myoblast, 48 h, read-out: Burkin Assay in Myoblasts, value relative to DMSO

## O=C1Nc2ccccc2/C1=C/c1ccccc1Cl [MLS001202425-01]
[1]; 0.5 uM
  CMV-LACZ in Myoblasts, value relative to DMSO: 1.0625
[1]; 1 uM
  CMV-LACZ in Myoblasts, value relative to DMSO: 1.0919
[1]; 5 uM
  CMV-LACZ in Myoblasts, value relative to DMSO: 0.8675
[1]; 10 uM
  CMV-LACZ in Myoblasts, value relative to DMSO: 1.1386
[1]; 20 uM
  CMV-LACZ in Myoblasts, value relative to DMSO: 0.9081
[1]; 40 uM
  CMV-LACZ in Myoblasts, value relative to DMSO: 0.6233
[2]; 0.5 uM
  Burkin Assay in Myoblasts, value relative to DMSO: 1.2214
[2]; 1 uM
  Burkin Assay in Myoblasts, value relative to DMSO: 1.219
[2]; 5 uM
  Burkin Assay in Myoblasts, value relative to DMSO: 0.9673
[2]; 10 uM
  Burkin Assay in Myoblasts, value relative to DMSO: 0.8645
[2]; 20 uM
  Burkin Assay in Myoblasts, value relative to DMSO: 0.7465
[2]; 40 uM
  Burkin Assay in Myoblasts, value relative to DMSO: 0.3445
[3]; 0.5 uM
  CMV-LACZ in Myotubes, value relative to DMSO: 0.8793
[3]; 1 uM
  CMV-LACZ in Myotubes, value relative to DMSO: 1.0185
[3]; 5 uM
  CMV-LACZ in Myotubes, value relative to DMSO: 1.1496
[3]; 10 uM
  CMV-LACZ in Myotubes, value relative to DMSO: 1.0423
[3]; 20 uM
  CMV-LACZ in Myotubes, value relative to DMSO: 0.9918
[3]; 40 uM
  CMV-LACZ in Myotubes, value relative to DMSO: 0.9976
[4]; 0.5 uM
  Burkin Assay in Myotubes, value relative to DMSO: 1.148
[4]; 1 uM
  Burkin Assay in Myotubes, value relative to DMSO: 1.205
[4]; 5 uM
  Burkin Assay in Myotubes, value relative to DMSO: 0.9499
[4]; 10 uM
  Burkin Assay in Myotubes, value relative to DMSO: 0.8033
[4]; 20 uM
  Burkin Assay in Myotubes, value relative to DMSO: 0.5178
[4]; 40 uM
  Burkin Assay in Myotubes, value relative to DMSO: 0.354

## COc1ccccc1/C=C1\C(=O)Nc2ccccc21 [MLS001202634-01]
[1]; 0.5 uM
  CMV-LACZ in Myoblasts, value relative to DMSO: 1.0500
[1]; 1 uM
  CMV-LACZ in Myoblasts, value relative to DMSO: 1.0071
[1]; 5 uM
  CMV-LACZ in Myoblasts, value relative to DMSO: 1.1287
[1]; 10 uM
  CMV-LACZ in Myoblasts, value relative to DMSO: 1.0990
[1]; 20 uM
  CMV-LACZ in Myoblasts, value relative to DMSO: 1.0817
[1]; 40 uM
  CMV-LACZ in Myoblasts, value relative to DMSO: 0.9217
[2]; [5]
  fold induction at 0.5 µM: 1.21
  fold induction at 1 µM: 1.1
  fold induction at 5 µM: 1.14
  fold induction at 10 µM: 1.31
  fold induction at 20 µM: 0.994
  fold induction at 40 µM: 0.931
[3]; 0.5 uM
  CMV-LACZ in Myotubes, value relative to DMSO: 0.9582
[3]; 1 uM
  CMV-LACZ in Myotubes, value relative to DMSO: 1.0073
[3]; 5 uM
  CMV-LACZ in Myotubes, value relative to DMSO: 1.2348
[3]; 10 uM
  CMV-LACZ in Myotubes, value relative to DMSO: 0.9661
[3]; 20 uM
  CMV-LACZ in Myotubes, value relative to DMSO: 0.9750
[3]; 40 uM
  CMV-LACZ in Myotubes, value relative to DMSO: 0.9340
[4]; 0.5 uM
  Burkin Assay in Myotubes, value relative to DMSO: 0.9928
[4]; 1 uM
  Burkin Assay in Myotubes, value relative to DMSO: 1.1156
[4]; 5 uM
  Burkin Assay in Myotubes, value relative to DMSO: 0.9675
[4]; 10 uM
  Burkin Assay in Myotubes, value relative to DMSO: 1.139
[4]; 20 uM
  Burkin Assay in Myotubes, value relative to DMSO: 0.9473
[4]; 40 uM
  Burkin Assay in Myotubes, value relative to DMSO: 1.289
